ChEMBL document CHEMBL1201862, “PubChem BioAssay data set” (2004)
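Cells were grown in 96-well plates and exposed to each compound for 48 hours at five concentrations; endpoints were interpolated linearly between bracketing concentrations, or set to the highest concentration if not reached. The concentration for 50% growth inhibition is given as GI50.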 Activity calls are given as the source filed them. Cut-off read from the data, not from the text of the source: active = GI50 up to about 1.1 µM and inactive = higher.

Columns and labels:
Experiment in all cases: inhibition of tumour cell growth, NCI panel, 48 h
[1] = system: 786-0
[2] = system: A498
[3] = system: A549
[4] = system: CCRF-CEM
[5] = system: DU-145
[6] = system: HCT-15
[7] = system: HT-29
[8] = system: Hs-578T
[9] = system: MDA-N
[10] = system: MOLT-4
[11] = system: NCI-H226
[12] = system: NCI-H23
[13] = system: NCI-H522
[14] = system: RXF 393
[15] = system: SN12C
[16] = system: SNB-19
[17] = system: SNB-75
[18] = system: SW-620
[19] = system: UACC-62
[20] = system: UO-31

Measured: GI50

C=C1C[C@@H](O)[C@@H](Br)C(C)(C)[C@]12CCC(C)(Cl)C(Br)C2 (stereo not given in full)
35.1 µM: [6]
inactive: [1] 25.9 µM | [2] > 46.9 µM | [3] 26.2 µM | [4] 41.6 µM | [5] 62.4 µM | [7] 29 µM | [8] 27.4 µM | [9] 25.5 µM | [10] 36.4 µM | [11] 20.9 µM | [12] 21.1 µM | [13] 17.5 µM | [14] 28.6 µM | [15] 18.8 µM | [16] > 31.6 µM | [17] 18.9 µM | [18] 39.9 µM | [19] 40.5 µM | [20] 59 µM

COC1(OC)N=C(N)C2(C#N)/C(=N/N(C)C)CC(C)C12C#N (stereo not given)
inactive: [1] > 100 µM | [2] > 100 µM | [3] > 100 µM | [4] > 100 µM | [5] > 100 µM | [7] > 100 µM | [8] > 100 µM | [9] > 100 µM | [10] > 100 µM | [11] > 100 µM | [12] > 100 µM | [13] > 100 µM | [14] > 100 µM | [15] > 100 µM | [16] > 100 µM | [17] 71.9 µM | [18] > 100 µM | [19] > 100 µM | [20] > 100 µM
> 100 µM: [6]

C[C@@]1(CCCCCCCCCCc2ccccc2)C[C@@]2(C)OC(=O)C[C@H]2OO1
1.73 µM: [6]
inactive: [1] 1.51 µM | [2] 19.7 µM | [3] 2.76 µM | [4] 1.55 µM | [5] 2.77 µM | [7] 1.46 µM | [8] 2.47 µM | [9] 1.99 µM | [10] 1.69 µM | [11] 3.1 µM | [12] 1.55 µM | [13] 1.72 µM | [14] 1.93 µM | [15] 1.81 µM | [16] 2.26 µM | [17] 2.81 µM | [18] 1.68 µM | [19] 1.8 µM | [20] 1.89 µM

O=C(/C=C/c1ccccc1)c1cc(CN2CCOCC2)c(O)c(CN2CCOCC2)c1
7.5 µM: [6]
inactive: [1] 9.42 µM | [2] 12.9 µM | [3] 17.9 µM | [4] 2.71 µM | [5] 16 µM | [7] 17.4 µM | [8] 35.6 µM | [9] 19.7 µM | [10] 16.7 µM | [11] 26.6 µM | [12] 22.5 µM | [13] > 100 µM | [14] 14.1 µM | [15] 11.9 µM | [16] 94 µM | [17] 19.3 µM | [18] 12.3 µM | [19] 17 µM | [20] 15.4 µM

CC(C)(C)CN1[C@@H]2CCCC[C@H]2N(CC(C)(C)C)P1(=O)C(O)/C=C/c1ccccc1 (stereo not given in full)
inactive: [1] 39.4 µM | [2] 28.6 µM | [3] 25.1 µM | [4] 34.3 µM | [5] 58.1 µM | [7] 31.5 µM | [8] 29.9 µM | [9] 35.3 µM | [10] 35.5 µM | [11] 22.7 µM | [12] 56.6 µM | [13] 26.7 µM | [14] 30.3 µM | [15] 22.2 µM | [16] 26.8 µM | [17] 21.3 µM | [18] 34.2 µM | [19] 35.2 µM | [20] 29.5 µM
18.5 µM: [6]

Cc1c(S(=O)(=O)c2ccccc2)c(N)n(Cc2ccccc2)c1C
> 100 µM: [6]
inactive: [1] > 100 µM | [2] > 100 µM | [3] > 100 µM | [4] > 100 µM | [5] > 100 µM | [7] > 100 µM | [8] 53.1 µM | [9] > 100 µM | [10] > 100 µM | [11] > 100 µM | [12] > 100 µM | [13] > 100 µM | [14] 76.6 µM | [15] > 100 µM | [16] > 100 µM | [17] > 100 µM | [18] > 100 µM | [19] > 100 µM | [20] > 100 µM

O=C(O)Cc1ccc2c(c1)/C(=C1/Nc3ccccc3C1=O)C(=O)N2
27.6 µM: [6]
inactive: [1] 27.5 µM | [2] 31.7 µM | [3] 80.9 µM | [4] 34.4 µM | [5] 49.9 µM | [7] 38.8 µM | [8] 27.8 µM | [9] 38.4 µM | [10] 25.8 µM | [11] 60.8 µM | [12] 39.6 µM | [13] 35 µM | [14] 17.2 µM | [15] 56.1 µM | [16] 66.2 µM | [17] 26.1 µM | [18] 46.2 µM | [19] 24.4 µM | [20] 49 µM
